Measured values taken from patent US8101760B2, “Glucocorticoid receptor modulator and methods of use” (Eli Lilly and Company, priority 2007, dated 2012).

How the values were obtained:
[1] = Hygroscopicity and solid-state stability; format: physicochemical
[2] = biological target: T1, human PR (progesterone receptor) (Homo sapiens, UniProt P06401); test: Nuclear hormone receptor binding assay, PR
T1 construct: expressed in transfected cells; host or cells: HEK293 (lysate, '293-PR lysate')
T1 sequence (P06401 1-933): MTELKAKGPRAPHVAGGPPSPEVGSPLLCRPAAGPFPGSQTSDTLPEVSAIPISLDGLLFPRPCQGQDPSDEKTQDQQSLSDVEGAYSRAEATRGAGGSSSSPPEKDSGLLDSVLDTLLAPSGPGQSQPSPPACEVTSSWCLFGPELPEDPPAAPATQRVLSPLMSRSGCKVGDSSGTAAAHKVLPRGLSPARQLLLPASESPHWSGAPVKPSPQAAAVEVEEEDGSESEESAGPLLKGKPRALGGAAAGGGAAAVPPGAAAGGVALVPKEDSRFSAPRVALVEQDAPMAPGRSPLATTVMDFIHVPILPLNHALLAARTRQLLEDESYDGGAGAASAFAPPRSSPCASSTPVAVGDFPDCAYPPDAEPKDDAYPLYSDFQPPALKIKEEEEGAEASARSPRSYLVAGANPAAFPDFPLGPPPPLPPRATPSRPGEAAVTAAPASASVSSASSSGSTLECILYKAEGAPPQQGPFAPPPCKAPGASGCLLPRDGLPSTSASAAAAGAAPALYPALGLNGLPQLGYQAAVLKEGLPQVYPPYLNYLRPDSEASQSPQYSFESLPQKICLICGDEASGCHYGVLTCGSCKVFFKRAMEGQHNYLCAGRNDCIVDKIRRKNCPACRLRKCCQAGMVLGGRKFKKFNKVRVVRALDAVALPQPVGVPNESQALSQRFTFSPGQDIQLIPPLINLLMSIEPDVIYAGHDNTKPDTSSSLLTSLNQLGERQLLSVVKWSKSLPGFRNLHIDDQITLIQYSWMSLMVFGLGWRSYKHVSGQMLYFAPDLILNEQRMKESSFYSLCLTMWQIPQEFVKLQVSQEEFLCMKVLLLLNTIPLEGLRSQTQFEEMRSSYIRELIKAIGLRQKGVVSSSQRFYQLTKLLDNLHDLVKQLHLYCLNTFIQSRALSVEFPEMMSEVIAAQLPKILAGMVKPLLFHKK
Description: Cell lysates from human embryonic kidney HEK293 cells overexpressing human GR (glucocorticoid receptor), AR (androgen receptor), MR (mineralocorticoid receptor), or PR (progesterone receptor) are used for receptor-ligand competition binding assays to determine Ki values.
Briefly, steroid receptor competition binding assays are run in a buffer containing 20 mM Hepes buffer (pH=7.6), 0.2 mM EDTA, 75 mM NaCl, 1.5 mM MgCl2, 20% glycerol, 20 mM sodium molybdate, 0.2 mM DTT (dithiothreitol), 20 μg/mL aprotinin and 20 μg/mL leupeptin. Typically, steroid receptor binding assays include radio-labeled ligands, such as 0.3 nM [^3H]-dexamethasone for GR binding, 0.36 nM [^3H]-methyltrienolone for AR binding, 0.25 nM [^3H]-aldosterone for MR binding, and 0.29 nM [^3H]-methyltrienolone for PR binding, and either 20 μg 293-GR lysate, 22 μg 293-AR lysate, 20 μg 293-MR lysate or 40 μg 293-PR lysate per well. Assays are typically run in 96-well format. Competing test compounds are added at various concentrations ranging from about 0.01 nM to 10 μM. Non-specific binding is determined in the presence of 500 nM dexamethasone for GR binding, 500 nM aldosterone for MR binding, or 500 nM methyltrienolone for AR and PR binding. […] After an incubation of 2 hours, plates are read in a Wallac Microbeta counter. […]

[3] = test system: IL-1β-stimulated IL-6 production in human skin fibroblast CCD-39SK cells; test: GR-mediated transrepression: IL-1β-stimulated IL-6 production in CCD-39SK cells; format: cell-based; settings: mean of 22 determinations, read-out: EC50, inhibition of IL-6 expression
Description: Glucocorticoid Receptor-Mediated Transrepression Assays: 1. IL-1β-Stimulated IL-6 Production in Human Skin Fibroblast CCD-39SK Cells:
Briefly, human skin fibroblast CCD-39SK cells (20,000 cells/well), obtained from the American Type Culture Collection (ATCC), Manassas, Va. U.S.A. (ATCC Catalog #CRL-1501) are seeded in 96-well plates in SF-GM (MEM) medium (ATCC Catalog #30-20030), supplemented with 10% fetal bovine serum (FBS), 100 U/mL penicillin, 100 μg/mL streptomycin and 2 mmol/L L-glutamine. Cells are maintained in a humidified chamber with 5% CO2 at 37° C. Test compounds are added to the wells in various concentrations ranging from a final concentration of about 4.65 pM to 4.64 μM. 0.1 μM of dexamethasone is used as a positive control. 1-hour post treatment with test compound, IL-1β is added at final concentration of 1 ng/mL and the reaction mixture is incubated overnight. IL-6 concentrations are measured with an ELISA Kit (R&D Systems, Inc., Minneapolis, Minn., U.S.A.) using standard techniques. Briefly, take 10 μL of supernatant from each well and add 90 μL of assay buffer. IL-6 concentrations are quantified by reading absorbance at 450 nm. A standard curve of absorbance versus IL-6 concentration is constructed and used to determine the concentration of IL-6 in experimental samples.

hygroscopicity [1]: non-hygroscopic
stability ([1]; increased temperature, relative humidity, and light exposure): stable
Ki ([2]; HEK293 cell lysate expressing human PR, [3H]-methyltrienolone, mean of 5 determinations): 31 nM
greater affinity for GR relative to PR ([2]; binding selectivity GR vs PR): ≥ 30 fold
Compound: CC/C(=C1\c2ccc(Cl)cc2OCc2ncccc21)c1cccc(NS(C)(=O)=O)c1 [Compound (I), (E)-N-{3-[1-(8-Chloro-11H-10-oxa-1-aza-dibenzo[a,d]cyclohepten-5-ylidene)-propyl]-phenyl}-methanesulfonamide]
EC50 [3]: ~4.8 nM
